pIC50: −log10 of the molar value. Active and inactive are the calls of the source. No cut-off for these calls is given here.
Key:
[1] = target: T1, Xanthine dehydrogenase/oxidase (Homo sapiens, UniProt P47989); test: Inhibition of XOD (unknown origin) using xanthine as substrate at 1 uM preincubated for 30 mins followed by xanthine addition measured after 30 mins by microplate reader relative to control; conditions: 0.5 h, time 60 min
Rattus norvegicus [2] = test: Antiarthritic activity against MSU-induced Sprague-Dawley rat OA model assessed as inflammation index at 10 mg/kg, ig administered for 3 days; assay type: functional; conditions: time 3 day
Rattus norvegicus [3] = test: Antiarthritic activity against MSU-induced Sprague-Dawley rat OA model assessed as reduction of serum TNF-alpha protein expression level at 10 mg/kg, ig administered for 3 days by ELISA; assay type: functional, organism-based; conditions: time 3.0 day
Rattus norvegicus [4] = test: Antiarthritic activity against MSU-induced Sprague-Dawley rat OA model assessed as dysfunction index at 10 mg/kg, ig administered for 3 days; assay type: functional; conditions: time 3 day
Rattus norvegicus [5] = test: Antiarthritic activity against MSU-induced Sprague-Dawley rat OA model assessed as toe swelling volume variation at 10 mg/kg, ig administered for 3 days; assay type: functional; conditions: time 3 day
Rattus norvegicus [6] = test: Antiarthritic activity against MSU-induced Sprague-Dawley rat OA model assessed as dysfunction index at 1 mg/kg, ig administered for 3 days; assay type: functional, organism-based; conditions: time 3.0 day
Rattus norvegicus [7] = test: Antiarthritic activity against MSU-induced Sprague-Dawley rat OA model assessed as toe swelling volume variation at 1 mg/kg, ig administered for 3 days; assay type: functional, organism-based; conditions: time 3.0 day
Rattus norvegicus [8] = test: Antiarthritic activity against MSU-induced Sprague-Dawley rat OA model assessed as reduction in NLRP3 mRNA expression level in tissue joint at 10 mg/kg, ig administered for 3 days by qRT-PCR analysis; assay type: functional, organism-based; conditions: time 3.0 day
Rattus norvegicus [9] = test: Antiarthritic activity against MSU-induced Sprague-Dawley rat OA model assessed as reduction in ASC mRNA expression level in tissue joint at 10 mg/kg, ig administered for 3 days by qRT-PCR analysis; assay type: functional, organism-based; conditions: time 3.0 day
Rattus norvegicus [10] = test: Antiarthritic activity against MSU-induced Sprague-Dawley rat OA model assessed as reduction in Caspase-1 mRNA expression level in tissue joint at 10 mg/kg, ig administered for 3 days by qRT-PCR analysis; assay type: functional, organism-based; conditions: time 3.0 day
Rattus norvegicus [11] = test: Antiarthritic activity against MSU-induced Sprague-Dawley rat OA model assessed as inflammation index at 1 mg/kg, ig administered for 3 days; assay type: functional, organism-based; conditions: time 3.0 day
[12] = target: T1, Xanthine dehydrogenase/oxidase; test: Inhibition of XOD (unknown origin) using xanthine as substrate preincubated for 30 mins followed by xanthine addition measured after 30 mins by microplate reader
Mus musculus [13] = test: Hypouricemic activity in hypoxanthine/potassium oxonate-induced hyperuricemic Kunming mouse model assessed as decrease in serum XOD level at 10 mg/kg, po administered for 7 days measured 4 hrs post last dose by automatic biochemical analyzer; assay type: functional, organism-based; conditions: time 7.0 day
Mus musculus [14] = test: Hypouricemic activity in hypoxanthine/potassium oxonate-induced hyperuricemic Kunming mouse model assessed as decrease in liver XOD level at 10 mg/kg, po administered for 7 days measured 4 hrs post last dose by automatic biochemical analyzer; assay type: functional, organism-based; conditions: time 7.0 day

T1 sequence (P47989 whole entry): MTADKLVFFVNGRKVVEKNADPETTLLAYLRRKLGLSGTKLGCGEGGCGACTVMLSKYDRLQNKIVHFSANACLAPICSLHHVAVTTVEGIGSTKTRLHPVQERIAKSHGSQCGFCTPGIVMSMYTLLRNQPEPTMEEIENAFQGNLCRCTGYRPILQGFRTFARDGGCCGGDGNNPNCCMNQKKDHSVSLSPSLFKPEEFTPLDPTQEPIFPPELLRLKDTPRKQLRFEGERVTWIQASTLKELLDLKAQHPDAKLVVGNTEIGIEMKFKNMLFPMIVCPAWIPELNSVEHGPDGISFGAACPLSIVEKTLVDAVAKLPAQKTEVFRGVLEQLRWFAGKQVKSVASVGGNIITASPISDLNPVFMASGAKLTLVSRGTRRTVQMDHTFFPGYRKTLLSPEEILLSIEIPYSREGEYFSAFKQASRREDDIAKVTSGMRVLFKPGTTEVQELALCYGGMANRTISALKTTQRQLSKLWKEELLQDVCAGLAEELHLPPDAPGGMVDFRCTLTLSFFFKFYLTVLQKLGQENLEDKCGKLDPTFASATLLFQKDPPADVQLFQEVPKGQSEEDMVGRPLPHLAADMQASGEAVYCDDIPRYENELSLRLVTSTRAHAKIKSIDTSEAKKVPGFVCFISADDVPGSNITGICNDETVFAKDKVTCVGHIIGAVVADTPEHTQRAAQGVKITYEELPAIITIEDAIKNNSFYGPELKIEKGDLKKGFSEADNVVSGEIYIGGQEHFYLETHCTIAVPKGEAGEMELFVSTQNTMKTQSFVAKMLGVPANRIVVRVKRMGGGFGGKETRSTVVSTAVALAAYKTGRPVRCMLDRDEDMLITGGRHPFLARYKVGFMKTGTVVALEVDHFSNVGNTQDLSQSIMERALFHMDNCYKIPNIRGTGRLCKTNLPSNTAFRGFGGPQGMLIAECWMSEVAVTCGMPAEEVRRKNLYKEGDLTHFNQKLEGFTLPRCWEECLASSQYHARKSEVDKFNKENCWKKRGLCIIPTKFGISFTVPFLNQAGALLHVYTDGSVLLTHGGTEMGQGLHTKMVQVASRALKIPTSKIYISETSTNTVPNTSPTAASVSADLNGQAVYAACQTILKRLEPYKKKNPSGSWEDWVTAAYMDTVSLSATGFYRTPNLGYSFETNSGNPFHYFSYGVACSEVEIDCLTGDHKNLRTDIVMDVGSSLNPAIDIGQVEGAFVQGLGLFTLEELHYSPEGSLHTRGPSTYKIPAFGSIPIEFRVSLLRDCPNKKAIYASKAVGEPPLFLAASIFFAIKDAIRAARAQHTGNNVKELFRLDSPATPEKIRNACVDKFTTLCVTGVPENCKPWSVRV

COc1cc2c(cc1OC)C(Cc1ccc(O)cc1)N(C)CC2 (configuration not stated)
inhibition at 1 µM [1]: < 20%

CC1(C)C=Cc2cc(-c3cc(=O)c4c(O)cc(O)cc4o3)ccc2O1
inhibition at 1 µM [1]: < 20%

COc1cc2c(c(OC)c1OC)-c1ccc(OC)c(=O)cc1[C@@H](NC(C)=O)CC2 [COLCHICINE]
Activity_index (Rattus norvegicus [2]): 0.6
Activity (Rattus norvegicus [3]): Active
Activity_index (Rattus norvegicus [4]): 0
Activity (Rattus norvegicus [5]): 0.03 mL
Activity (Rattus norvegicus [6]): Active
Activity (Rattus norvegicus [7]): Active
Activity (Rattus norvegicus [8]): Active
Activity (Rattus norvegicus [9]): Active
Activity (Rattus norvegicus [10]): Active
Activity (Rattus norvegicus [11]): Active

COc1cc(O)c2c(=O)cc(-c3cc(OC)c(OC)c(OC)c3)oc2c1 [CORYMBOSIN]
inhibition at 1 µM [1]: < 20%

Cc1nc(-c2ccc(OCC(C)C)c(C#N)c2)sc1C(=O)O [FEBUXOSTAT]
inhibition at 1 µM [1]: 75%
pIC50 [12]: 6.80
Activity (Mus musculus [13]): Active
Activity (Mus musculus [14]): Active

— ChEMBL document CHEMBL5370574, “Discovery and Characterization of Moracin C as an Anti-Gouty Arthritis/Hyperuricemia Candidate by Docking-Based Virtual Screening and Pharmacological Evaluation” (J Nat Prod, 2023)
